From the SangsterLogP compilation

Assay: method code SF-AS, from DOI: 10.1139/v66-154

| Structure (SMILES) | logP |
| --- | --- |
| O=C1C=C(Cl)C(=O)c2ccccc21 | 2.15 |
| O=[N+]([O-])/C=C/c1cccc([N+](=O)[O-])c1 | 1.82 |
| O=[N+]([O-])/C=C/c1ccc(Cl)cc1 | 2.44 |
| CC(=O)NC1=C(Nc2ccccc2)C(=O)c2ccccc2C1=O | 1.73 |
| COC1=CC(=O)c2ccccc2C1=O | 1.35 |
| O=C1C=C(Nc2ccccc2)C(=O)c2ccccc21 | 2.84 |
| Cc1cc2c(cc1C)C(=O)C=CC2=O | 2.49 |
| CN(C)c1ccc(/C=C/[N+](=O)[O-])cc1 | 2.67 |
| CC(=O)NC1=CC(=O)c2ccccc2C1=O | 1.29 |
| CCCCNC1=C(Cl)C(=O)c2ccccc2C1=O | 4.26 |
| Cc1ccc2c(c1)C(=O)C=CC2=O | 2.1 |
| O=C1C=C(c2ccccc2)C(=O)c2ccccc21 | 4.4 |
| CCCCSC1=C(NC(C)=O)C(=O)c2ccccc2C1=O | 2.07 |
| O=C1C(Cl)=C(Nc2ccccc2)C(=O)c2ccccc21 | 4.22 |
| O=[N+]([O-])C=Cc1ccccc1 | 2.11 |
| O=C1C=CC(=O)c2ccccc21 | 1.71 |

| Structure (SMILES) | logP |
| --- | --- |
| O=C1C=C(S(=O)(=O)c2ccccc2)C(=O)c2ccccc21 | 2.14 |
| O=[N+]([O-])C=Cc1cc([N+](=O)[O-])ccc1Cl | 2.23 |
| O=[N+]([O-])/C=C/c1ccc([N+](=O)[O-])cc1 | 1.89 |
| CCCCNC1=CC(=O)c2ccccc2C1=O | 3.11 |
| COC1=C(C)C(=O)c2ccccc2C1=O | 2.14 |
| O=[N+]([O-])C=Cc1cccc(O)c1 | 2.07 |
| C/C(=C\c1ccccc1)[N+](=O)[O-] | 2.52 |
| O=[N+]([O-])/C=C/c1ccccc1Cl | 2.85 |
| O=[N+]([O-])/C=C/c1ccccc1[N+](=O)[O-] | 1.8 |
| CC1=C(O)c2ccccc2C(=O)C1=O | 1.2 |
| CCCCSC1=CC(=O)c2ccccc2C1=O | 3.29 |
| COc1cc(C=C[N+](=O)[O-])ccc1O | 1.88 |
| O=C1C(Nc2ccccc2)=C(S(=O)(=O)c2ccccc2)C(=O)c2ccccc21 | 3.38 |
| COc1cccc(/C=C/[N+](=O)[O-])c1 | 2.3 |
| O=[N+]([O-])/C=C/c1cccc(Cl)c1 | 2.57 |
| O=[N+]([O-])/C=C/c1ccc(O)cc1 | 2.12 |
